Experimental data: the NIST ThermoML archive (doi:10.1016/j.tca.2017.06.023)

Legend:
[1] = xn = mol fraction of the nth substance listed; details: 100 kPa, Liquid; for viscosity: Capillary tube (Ostwald / Ubbelohde) method; for speed of sound: Frequency=3 MHz, Sing-around technique in a fixed-path interferometer; for mass density: Vibrating tube method
[2] = refractive index (Na D-line) (dimensionless); xn = mol fraction of the nth substance listed; details: 100 kPa, Liquid, Standard Abbe refractometry

CC(=O)N(C)C [N,N-dimethylethanamide] + CC(C)O
Details	mass density, [1] [kg/m3]	refractive index, [2]	speed of sound, [1] [m/s]	viscosity, [1] [mPa·s]
283.15 K, x1 = 0.0551	803.7	1.38572	1214.1	2.752
283.15 K, x1 = 0.1091	813.5	1.38973	1234.9	2.354
283.15 K, x1 = 0.2113	831.42	1.39698	1271.8	1.896
283.15 K, x1 = 0.3066	847.5	1.40342	1303.6	1.643
283.15 K, x1 = 0.4084	864.09	1.40997	1336.4	1.476
283.15 K, x1 = 0.5049	879.33	1.4159	1366.7	1.392
283.15 K, x1 = 0.6056	894.73	1.42182	1398.1	1.305
283.15 K, x1 = 0.7028	909.13	1.42729	1427.9	1.272
283.15 K, x1 = 0.8024	923.39	1.43267	1458.5	1.246
283.15 K, x1 = 0.8956	936.27	1.43751	1486.3	1.213
283.15 K, x1 = 0.9464	943.08	1.44007	1501.5	1.205
283.15 K, x1 = 1	950.13	1.44273	1516.8	1.168
298.15 K, x1 = 0.0551	791.24	1.37924	1160.6	1.793
298.15 K, x1 = 0.1091	800.93	1.38322	1180.6	1.598
298.15 K, x1 = 0.2113	818.64	1.39042	1215.9	1.355
298.15 K, x1 = 0.3066	834.52	1.3968	1247.4	1.214
298.15 K, x1 = 0.4084	850.94	1.40331	1279.7	1.117
298.15 K, x1 = 0.5049	866.02	1.40919	1309.3	1.057
298.15 K, x1 = 0.6056	881.3	1.41506	1338.8	1.017
298.15 K, x1 = 0.7028	895.59	1.42049	1369.3	0.993
298.15 K, x1 = 0.8024	909.75	1.42581	1399.3	0.977
298.15 K, x1 = 0.8956	922.53	1.43061	1426.5	0.956
298.15 K, x1 = 0.9464	929.3	1.43317	1441.3	0.949
298.15 K, x1 = 1	936.29	1.43579	1453.7	0.93
313.15 K, x1 = 0.0551	778.1	1.37249	1107.6	1.223
313.15 K, x1 = 0.1091	787.72	1.37646	1127.3	1.129
313.15 K, x1 = 0.2113	805.29	1.38365	1162.2	1.008
313.15 K, x1 = 0.3066	821.08	1.39004	1193.5	0.933
313.15 K, x1 = 0.4084	837.39	1.39653	1225.2	0.879
313.15 K, x1 = 0.5049	852.41	1.40242	1254.2	0.849
313.15 K, x1 = 0.6056	867.62	1.40827	1282.9	0.828
313.15 K, x1 = 0.7028	881.85	1.4137	1313.2	0.809
313.15 K, x1 = 0.8024	895.96	1.41903	1342.1	0.795
313.15 K, x1 = 0.8956	908.71	1.42383	1368.5	0.779
313.15 K, x1 = 0.9464	915.46	1.42638	1382.5	0.772
313.15 K, x1 = 1	922.43	1.42901	1393.3	0.764

CC(=O)N(C)C [N,N-dimethylethanamide] + CCC(C)O
Details	mass density, [1] [kg/m3]	refractive index, [2]	speed of sound, [1] [m/s]	viscosity, [1] [mPa·s]
283.15 K, x1 = 0.062	823.15	1.40382	1280.8	4.37
283.15 K, x1 = 0.0926	827.08	1.40505	1288	3.888
283.15 K, x1 = 0.2101	842.13	1.4098	1314.5	2.795
283.15 K, x1 = 0.3084	854.75	1.41377	1337	2.363
283.15 K, x1 = 0.4084	867.81	1.41785	1360.1	2.043
283.15 K, x1 = 0.5009	880.22	1.42168	1382.3	1.833
283.15 K, x1 = 0.6002	893.87	1.42583	1407.2	1.662
283.15 K, x1 = 0.7001	907.96	1.43002	1433	1.518
283.15 K, x1 = 0.8035	922.69	1.43437	1461.3	1.418
283.15 K, x1 = 0.9004	936.39	1.43847	1488.8	1.318
283.15 K, x1 = 0.9572	944.31	1.44089	1505	1.258
283.15 K, x1 = 1	950.13	1.44273	1516.8	1.168
298.15 K, x1 = 0.062	810.77	1.39766	1226.5	2.545
298.15 K, x1 = 0.0926	814.69	1.39889	1233.5	2.345
298.15 K, x1 = 0.2101	829.59	1.40356	1259.8	1.839
298.15 K, x1 = 0.3084	842.09	1.40746	1281.4	1.593
298.15 K, x1 = 0.4084	855.06	1.41148	1303.8	1.427
298.15 K, x1 = 0.5009	867.31	1.41524	1324.9	1.316
298.15 K, x1 = 0.6002	880.82	1.41929	1349	1.233
298.15 K, x1 = 0.7001	894.7	1.42339	1374.8	1.151
298.15 K, x1 = 0.8035	909.23	1.42765	1402.4	1.066
298.15 K, x1 = 0.9004	922.74	1.43165	1428.8	1.02
298.15 K, x1 = 0.9572	930.54	1.43402	1443.3	0.967
298.15 K, x1 = 1	936.29	1.43579	1453.7	0.93
313.15 K, x1 = 0.062	797.87	1.39127	1172.2	1.587
313.15 K, x1 = 0.0926	801.76	1.39248	1179.1	1.501
313.15 K, x1 = 0.2101	816.61	1.39714	1205	1.274
313.15 K, x1 = 0.3084	829.07	1.40103	1226.2	1.146
313.15 K, x1 = 0.4084	841.93	1.40501	1247.8	1.048
313.15 K, x1 = 0.5009	854.12	1.40873	1268.8	0.979
313.15 K, x1 = 0.6002	867.53	1.41274	1292.5	0.927
313.15 K, x1 = 0.7001	881.27	1.4168	1317.7	0.888
313.15 K, x1 = 0.8035	895.63	1.42098	1345.2	0.857
313.15 K, x1 = 0.9004	909.02	1.42492	1370.2	0.819
313.15 K, x1 = 0.9572	916.72	1.42725	1384	0.791
313.15 K, x1 = 1	922.43	1.42901	1393.3	0.764
